The test system of experiment [1] is Escherichia coli. The experiment is described as follows: Antimicrobial activity against Escherichia coli H10407 assessed as growth inhibition at 16 ug/ml. The settings on record: ETEC H10407. Type of experiment: functional.
Experiment [2] concerns Escherichia coli. Kind of experiment: Antimicrobial activity against Escherichia coli H10407 assessed as decrease in cell density at 16 ug/ml after 4 hrs. The note with it: ETEC H10407. It counts as functional.
For experiment [3], the system named is Escherichia coli. Kind of experiment: Antimicrobial activity against Escherichia coli H10407 assessed as decrease in cell density at 16 ug/ml after 4 hrs in presence of 4 mM human bile acid. It counts as functional, ETEC H10407.
Experiment [4] relates to Escherichia coli. The experiment is described as follows: Antimicrobial activity against Escherichia coli H10407 assessed as decrease in cell density at 16 ug/ml after 4 hrs in presence of 4 mM pooled synthetic bile acid. It counts as functional, ETEC H10407.
Experiment [5] has as its system Escherichia coli. The experiment is described as follows: Antimicrobial activity against Escherichia coli H10407 assessed as decrease in cell density at 16 ug/ml after 4 hrs in presence of 4 mM cholic acid. It counts as functional, ETEC H10407.
In experiment [6] the test system is Escherichia coli. The experiment is described as follows: Antimicrobial activity against Escherichia coli H10407 assessed as decrease in cell density at 16 ug/ml after 4 hrs in presence of 4 mM deoxycholic acid. It counts as functional, ETEC H10407.
Experiment [7] has as its system Escherichia coli. Kind of experiment: Antimicrobial activity against Escherichia coli H10407 assessed as decrease in cell density at 16 ug/ml after 4 hrs in presence of 4 mM chenodeoxycholic acid. It counts as functional, ETEC H10407.
In experiment [8] the test system is Escherichia coli. Kind of experiment: Antimicrobial activity against Escherichia coli H10407 assessed as decrease in cell density at 16 ug/ml after 4 hrs in presence of 4 mM glycocholic acid. It counts as functional, ETEC H10407.
In experiment [9] the test system is Escherichia coli. The experiment is described as follows: Antimicrobial activity against Escherichia coli H10407 assessed as decrease in cell density at 16 ug/ml after 4 hrs in presence of 4 mM taurocholic acid. Type of experiment: functional, ETEC H10407.
For experiment [10], the system named is Escherichia coli. Kind of experiment: Antimicrobial activity against Escherichia coli H10407 assessed as decrease in cell density at 16 ug/ml after 4 hrs in presence of 4 mM lithocholic acid. Type of experiment: functional, ETEC H10407.
Experiment [11] deals with Escherichia coli. The experiment is described as follows: Inhibition of RNA synthesis in Escherichia coli H10407 assessed as inhibition of beta-galactosidase expression relative to control. It counts as functional. The settings on record: ETEC H10407.
For experiment [12], the system named is Escherichia coli. Kind of experiment: Inhibition of RNA synthesis in Escherichia coli H10407 assessed as inhibition of beta-galactosidase expression at 8 ug/ml in presence of 4 mM bile acid. It counts as functional, ETEC H10407.
For experiment [13], the system named is Escherichia coli. Kind of experiment: Inhibition of RNA synthesis in Escherichia coli H10407 assessed as inhibition of beta-galactosidase expression at 16 ug/ml in presence of […] bile acid. It counts as functional, ETEC H10407.
In experiment [14] the test system is Escherichia coli. The experiment is described as follows: Inhibition of RNA synthesis in Escherichia coli H10407 assessed as inhibition of beta-galactosidase expression at 32 ug/ml in presence of 4 mM bile acid. It counts as functional, ETEC H10407.
Experiment [15] relates to Escherichia coli. Kind of experiment: Decrease in protein expression in Escherichia coli H10407 at 16 ug/ml after 4 hrs. Also on record: scale not given: the % may be the effect or the level left. It counts as functional, ETEC H10407.
Experiment [16] has as its system Escherichia coli. Kind of experiment: Bacteriostatic activity against Escherichia coli H10407 at 8 ug/ml in presence of bile acid relative to absence of bile acid. Type of experiment: functional, ETEC H10407.
Experiment [17] relates to Escherichia coli. Kind of experiment: Bacteriostatic activity against Escherichia coli H10407 at 16 ug/ml in presence of bile acid relative to absence of bile acid. Type of experiment: functional, ETEC H10407.

The source made the active and inactive calls. No cut-off for these calls is given here.

The record followed here is ChEMBL document CHEMBL1671703, “Bile acids improve the antimicrobial effect of rifaximin” (2010).

For the compound `CO[C@H]1/C=C/O[C@@]2(C)Oc3c(C)c(O)c4c(O)c(c5c(nc6cc(C)ccn65)c4c3C2=O)NC(=O)/C(C)=C\C=C\[C@H](C)[C@H](O)[C@@H](C)[C@@H](O)[C@@H](C)[C@H](OC(C)=O)[C@@H]1C` [RIFAXIMIN], the inhibition result in the experiment on Escherichia coli [1] and in the experiment with Escherichia coli [11] was “Active” each time. Also, the outcome in the experiment on Escherichia coli [2] was Active. Moreover, the “inhibition (INH)” value in the experiment on Escherichia coli [3] is recorded as 72.8%; in the experiment on Escherichia coli [4], 70.6%; in the experiment with Escherichia coli [5], 95.5%; in the experiment with Escherichia coli [6] it was 93.8%; in the experiment with Escherichia coli [7], 89.2%; in the experiment with Escherichia coli [8], 80.8%. For the same compound, the “inhibition (INH)” value is listed as 77.6% with Escherichia coli [9]; 43.9% in the experiment on Escherichia coli [10]; 33% in the experiment with Escherichia coli [12]; 49% with Escherichia coli [13]; 82% in the experiment on Escherichia coli [14]. In the experiment on Escherichia coli [15], the Activity is listed as 59%. For the same compound, the “fold change (FC)” value with Escherichia coli [16] turned out to be 2; in the experiment on Escherichia coli [17], 5.5.
